ChEMBL document CHEMBL1201861, “Genomics of Drug Sensitity in Cancer screening data, Wellcome Trust Sanger Institute”
pIC50: −log10 of the molar value.

Legend:
Assay in all cases: cells
D-502MG = assay type: functional, cell-based, Homo sapiens; conditions: Homo sapiens, D-502MG
Description: SANGER: Inhibition of human D-502MG cell growth in a cell viability assay.

HT = assay type: functional, cell-based, Homo sapiens; conditions: Homo sapiens, HT
Description: SANGER: Inhibition of human HT cell growth in a cell viability assay.

KLE = assay type: functional, cell-based; conditions: Homo sapiens;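 note: growth inhibition of human KLE cells, read out with a cell viability assay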
Description: SANGER: Inhibition of human KLE cell growth in a cell viability assay.

DU-4475 = assay type: functional, cell-based, Homo sapiens; conditions: Homo sapiens, DU-4475
Description: SANGER: Inhibition of human DU-4475 cell growth in a cell viability assay.

QIMR-WIL = assay type: functional, cell-based, Homo sapiens; conditions: Homo sapiens, QIMR-WIL;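 note: growth inhibition of QIMR-WIL cells, read out with a cell viability assay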
Description: SANGER: Inhibition of human QIMR-WIL cell growth in a cell viability assay.

IST-SL1 = assay type: functional, cell-based, Homo sapiens; conditions: Homo sapiens, IST-SL1;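 note: growth inhibition of human IST-SL1 cells, read out with a cell viability assay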
Description: SANGER: Inhibition of human IST-SL1 cell growth in a cell viability assay.

HEL = assay type: functional, cell-based, Homo sapiens; conditions: Homo sapiens, HEL;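 note: growth inhibition of HEL cells, read out with a cell viability assay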
Description: SANGER: Inhibition of human HEL cell growth in a cell viability assay.

NCI-H1770 = assay type: functional, cell-based, Homo sapiens; conditions: Homo sapiens, NCI-H1770;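 note: growth inhibition of NCI-H1770 cells determined with a viability readout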
Description: SANGER: Inhibition of human NCI-H1770 cell growth in a cell viability assay.

MSTO-211H = assay type: functional, cell-based, Homo sapiens; conditions: Homo sapiens, MSTO-211H
Description: SANGER: Inhibition of human MSTO-211H cell growth in a cell viability assay.

TE-9 = assay type: functional, cell-based, Homo sapiens; conditions: Homo sapiens, TE-9;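 note: cell growth inhibition, measured with a cell viability readout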
Description: SANGER: Inhibition of human TE-9 cell growth in a cell viability assay.

BV-173 = assay type: functional, cell-based, Homo sapiens; conditions: Homo sapiens, BV-173
Description: SANGER: Inhibition of human BV-173 cell growth in a cell viability assay.

NB5 = assay type: functional, cell-based, Homo sapiens; conditions: Homo sapiens, NB5;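 note: growth inhibition of NB5 cells, read out as cell viability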
Description: SANGER: Inhibition of human NB5 cell growth in a cell viability assay.

DOHH-2 = assay type: functional, cell-based, Homo sapiens; conditions: Homo sapiens, DOHH-2;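 note: growth inhibition of human DOHH-2 cells, read out with a cell viability assay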
Description: SANGER: Inhibition of human DOHH-2 cell growth in a cell viability assay.

A704 = assay type: functional, cell-based; conditions: Homo sapiens;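 note: growth inhibition of human A704 cells, read out with a cell viability assay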
Description: SANGER: Inhibition of human A704 cell growth in a cell viability assay.

EW-16 = assay type: functional, cell-based, Homo sapiens; conditions: Homo sapiens, EW-16;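 note: growth inhibition of human EW-16 cells, read out as cell viability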
Description: SANGER: Inhibition of human EW-16 cell growth in a cell viability assay.

KY821 = assay type: functional, cell-based, Homo sapiens; conditions: Homo sapiens, KY821;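 note: growth inhibition of human KY821 cells, read out by a cell viability assay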
Description: SANGER: Inhibition of human KY821 cell growth in a cell viability assay.

LC-2-ad = assay type: functional, cell-based, Homo sapiens; conditions: Homo sapiens, LC-2-ad;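 note: growth inhibition of human LC-2-ad cells, read out with a cell viability assay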
Description: SANGER: Inhibition of human LC-2-ad cell growth in a cell viability assay.

NCI-H1581 = assay type: functional, cell-based, Homo sapiens; conditions: Homo sapiens, NCI-H1581;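 note: cell growth inhibition read out by a viability assay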
Description: SANGER: Inhibition of human NCI-H1581 cell growth in a cell viability assay.

IST-MEL1 = assay type: functional, cell-based, Homo sapiens; conditions: Homo sapiens, IST-MEL1;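 note: growth inhibition of the cell line, read out with a cell viability assay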
Description: SANGER: Inhibition of human IST-MEL1 cell growth in a cell viability assay.

D-247MG = assay type: functional, cell-based; conditions: Homo sapiens
Description: SANGER: Inhibition of human D-247MG cell growth in a cell viability assay.

TE-8 = assay type: functional, cell-based, Homo sapiens; conditions: Homo sapiens, TE-8;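 note: growth inhibition of TE-8 cells, measured with a cell viability readout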
Description: SANGER: Inhibition of human TE-8 cell growth in a cell viability assay.

HDLM-2 = assay type: functional, cell-based, Homo sapiens; conditions: Homo sapiens, HDLM-2;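 note: cell viability assay measuring suppression of HDLM-2 proliferation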
Description: SANGER: Inhibition of human HDLM-2 cell growth in a cell viability assay.

A388 = assay type: functional, cell-based; conditions: Homo sapiens;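 note: growth inhibition of human A388 cells, read out with a cell viability assay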
Description: SANGER: Inhibition of human A388 cell growth in a cell viability assay.

NCI-H1838 = assay type: functional, cell-based, Homo sapiens; conditions: Homo sapiens, NCI-H1838;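 note: growth inhibition of NCI-H1838 cells, determined with a cell viability readout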
Description: SANGER: Inhibition of human NCI-H1838 cell growth in a cell viability assay.

LAN-6 = assay type: functional, cell-based, Homo sapiens; conditions: Homo sapiens, LAN-6;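 note: growth inhibition of LAN-6 cells, determined with a cell viability assay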
Description: SANGER: Inhibition of human LAN-6 cell growth in a cell viability assay.

TE-5 = assay type: functional, cell-based, Homo sapiens; conditions: Homo sapiens, TE-5;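 note: inhibition of cell growth, read out by a cell viability assay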
Description: SANGER: Inhibition of human TE-5 cell growth in a cell viability assay.

ES7 = assay type: functional, cell-based, Homo sapiens; conditions: Homo sapiens, ES7;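 note: growth inhibition of cultured human ES7 cells, read out as cell viability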
Description: SANGER: Inhibition of human ES7 cell growth in a cell viability assay.

KINGS-1 = assay type: functional, cell-based, Homo sapiens; conditions: Homo sapiens, KINGS-1;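 note: cell viability assay measuring suppression of KINGS-1 cell growth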
Description: SANGER: Inhibition of human KINGS-1 cell growth in a cell viability assay.

MPP-89 = assay type: functional, cell-based, Homo sapiens; conditions: Homo sapiens, MPP-89;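 note: growth inhibition of human MPP-89 cells, read out with a cell viability assay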
Description: SANGER: Inhibition of human MPP-89 cell growth in a cell viability assay.

NCI-H1092 = assay type: functional, cell-based, Homo sapiens; conditions: Homo sapiens, NCI-H1092;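 note: cell growth inhibition measured with a cell viability assay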
Description: SANGER: Inhibition of human NCI-H1092 cell growth in a cell viability assay.

MMAC-SF = assay type: functional, cell-based; conditions: Homo sapiens;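 note: growth inhibition of human MMAC-SF cells, read out with a cell viability assay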
Description: SANGER: Inhibition of human MMAC-SF cell growth in a cell viability assay.

no-11 = assay type: functional, cell-based, Homo sapiens; conditions: Homo sapiens;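 note: growth inhibition of human NO-11 cells, read out with a cell viability assay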
Description: SANGER: Inhibition of human no-11 cell growth in a cell viability assay.

SW982 = assay type: functional, cell-based; conditions: Homo sapiens;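 note: growth inhibition of SW982 cells, read out with a cell viability assay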
Description: SANGER: Inhibition of human SW982 cell growth in a cell viability assay.

EM-2 = assay type: functional, cell-based, Homo sapiens; conditions: Homo sapiens, EM-2;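 note: growth inhibition of EM-2 cells, read out with a cell viability assay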
Description: SANGER: Inhibition of human EM-2 cell growth in a cell viability assay.

NCI-H69 = assay type: functional, cell-based, Homo sapiens; conditions: Homo sapiens, NCI-H69;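 note: growth inhibition of the cell line, read out with a cell viability assay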
Description: SANGER: Inhibition of human NCI-H69 cell growth in a cell viability assay.

SW872 = assay type: functional, cell-based, Homo sapiens; conditions: Homo sapiens, SW872;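 note: growth inhibition of SW872 cells, read out by a viability assay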
Description: SANGER: Inhibition of human SW872 cell growth in a cell viability assay.

EW-11 = assay type: functional, cell-based, Homo sapiens; conditions: Homo sapiens, EW-11;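 note: growth inhibition of human EW-11 cells, measured with a cell viability assay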
Description: SANGER: Inhibition of human EW-11 cell growth in a cell viability assay.

SK-UT-1 = assay type: functional, cell-based, Homo sapiens; conditions: Homo sapiens, SK-UT-1;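 note: growth inhibition of SK-UT-1 cells, measured by a cell viability assay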
Description: SANGER: Inhibition of human SK-UT-1 cell growth in a cell viability assay.

NCI-H226 = assay type: functional, cell-based, Homo sapiens; conditions: Homo sapiens, NCI-H226;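 note: cell viability read-out used to gauge growth inhibition of the cells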
Description: SANGER: Inhibition of human NCI-H226 cell growth in a cell viability assay.

LS-513 = assay type: functional, cell-based, Homo sapiens; conditions: Homo sapiens, LS-513
Description: SANGER: Inhibition of human LS-513 cell growth in a cell viability assay.

BB30-HNC = assay type: functional, cell-based, Homo sapiens; conditions: Homo sapiens, BB30-HNC;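 note: growth inhibition of the cultured cell line, read out by a cell viability assay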
Description: SANGER: Inhibition of human BB30-HNC cell growth in a cell viability assay.

NCI-H1395 = assay type: functional, cell-based, Homo sapiens; conditions: Homo sapiens, NCI-H1395;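 note: cell viability assay read-out quantifying reduced proliferation of human NCI-H1395 cells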
Description: SANGER: Inhibition of human NCI-H1395 cell growth in a cell viability assay.

OCUB-M = assay type: functional, cell-based; conditions: Homo sapiens;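 note: growth inhibition of the cancer cell line, read out through a cell viability assay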
Description: SANGER: Inhibition of human OCUB-M cell growth in a cell viability assay.

KGN = assay type: functional, cell-based, Homo sapiens; conditions: Homo sapiens, KGN;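 note: growth inhibition of KGN cells, read out with a cell viability assay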
Description: SANGER: Inhibition of human KGN cell growth in a cell viability assay.

EW-18 = assay type: functional, cell-based, Homo sapiens; conditions: Homo sapiens, EW-18; read-out: IC50;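 note: growth inhibition of EW-18 cells, read out by a cell viability assay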
Description: SANGER: Inhibition of human EW-18 cell growth in a cell viability assay.

no-10 = assay type: functional, cell-based, Homo sapiens; conditions: Homo sapiens;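 note: growth inhibition of no-10 cells, read out with a cell viability assay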
Description: SANGER: Inhibition of human no-10 cell growth in a cell viability assay.

ACN = assay type: functional, cell-based, Homo sapiens; conditions: Homo sapiens, ACN;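 note: growth inhibition of the human ACN cell line, read out via cell viability testing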
Description: SANGER: Inhibition of human ACN cell growth in a cell viability assay.

OCI-AML2 = assay type: functional, cell-based, Homo sapiens; conditions: Homo sapiens, OCI-AML2;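 note: growth inhibition of OCI-AML2 cells, read out with a cell viability assay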
Description: SANGER: Inhibition of human OCI-AML2 cell growth in a cell viability assay.

GAK = assay type: functional, cell-based, Homo sapiens; conditions: Homo sapiens, GAK;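 note: cell growth inhibition read out by a cell viability assay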
Description: SANGER: Inhibition of human GAK cell growth in a cell viability assay.

Cc1cc(N2CCOCC2)cc2[nH]c(-c3c(NC[C@@H](O)c4cccc(Cl)c4)cc[nH]c3=O)nc12
pIC50 (D-502MG): < 5.29 | pIC50 (HT): < 5.29 | pIC50 (KLE): 5.44 | pIC50 (DU-4475): < 5.29 | pIC50 (QIMR-WIL): < 5.29 | pIC50 (IST-SL1): < 5.29 | pIC50 (HEL): 5.72 | pIC50 (NCI-H1770): < 5.29 | pIC50 (MSTO-211H): < 5.29 | pIC50 (TE-9): 5.60 | pIC50 (BV-173): < 5.29 | pIC50 (NB5): 5.95 | pIC50 (DOHH-2): < 5.29 | pIC50 (A704): 5.98 | pIC50 (EW-16): 6.69 | pIC50 (KY821): < 5.29 | pIC50 (LC-2-ad): 6.93 | pIC50 (NCI-H1581): < 5.29 | pIC50 (IST-MEL1): 5.34 | pIC50 (D-247MG): < 5.29 | pIC50 (TE-8): 6.30 | pIC50 (HDLM-2): < 5.29 | pIC50 (A388): < 5.29 | pIC50 (NCI-H1838): < 5.29 | pIC50 (LAN-6): 6.77 | pIC50 (TE-5): < 5.29 | pIC50 (ES7): < 5.29 | pIC50 (KINGS-1): < 5.29 | pIC50 (MPP-89): 5.46 | pIC50 (NCI-H1092): < 5.29 | pIC50 (MMAC-SF): 6.30 | pIC50 (no-11): < 5.29 | pIC50 (SW982): 6.14 | pIC50 (EM-2): < 5.29 | pIC50 (NCI-H69): < 5.29 | pIC50 (SW872): 5.70 | pIC50 (EW-11): < 5.29 | pIC50 (SK-UT-1): < 5.29 | pIC50 (NCI-H226): < 5.29 | pIC50 (LS-513): 5.38 | pIC50 (BB30-HNC): 5.95 | pIC50 (NCI-H1395): < 5.29 | pIC50 (OCUB-M): < 5.29 | pIC50 (KGN): 5.96 | pIC50 (EW-18): < 5.29 | pIC50 (no-10): < 5.29 | pIC50 (ACN): 5.70 | pIC50 (OCI-AML2): 5.88 | pIC50 (GAK): < 5.29

C=CC(=O)N1CCCC(Nc2nc(Nc3ccc(N(C)C(=O)CC)cc3)nc3[nH]cnc23)C1 (stereo not drawn)
pIC50 (D-502MG): < 4.99 | pIC50 (HT): < 4.99 | pIC50 (KLE): < 4.99 | pIC50 (DU-4475): < 4.99 | pIC50 (QIMR-WIL): < 4.99 | pIC50 (IST-SL1): < 4.99 | pIC50 (HEL): < 4.99 | pIC50 (NCI-H1770): < 4.99 | pIC50 (MSTO-211H): < 4.99 | pIC50 (TE-9): < 4.99 | pIC50 (BV-173): < 4.99 | pIC50 (NB5): < 4.99 | pIC50 (DOHH-2): < 4.99 | pIC50 (A704): < 4.99 | pIC50 (EW-16): 5.59 | pIC50 (KY821): < 4.99 | pIC50 (LC-2-ad): 5.14 | pIC50 (NCI-H1581): < 4.99 | pIC50 (IST-MEL1): < 4.99 | pIC50 (D-247MG): < 4.99 | pIC50 (TE-8): < 4.99 | pIC50 (HDLM-2): < 4.99 | pIC50 (A388): 5.13 | pIC50 (NCI-H1838): < 4.99 | pIC50 (LAN-6): < 4.99 | pIC50 (TE-5): < 4.99 | pIC50 (ES7): < 4.99 | pIC50 (KINGS-1): < 4.99 | pIC50 (MPP-89): < 4.99 | pIC50 (NCI-H1092): < 4.99 | pIC50 (MMAC-SF): < 4.99 | pIC50 (no-11): < 4.99 | pIC50 (SW982): < 4.99 | pIC50 (EM-2): < 4.99 | pIC50 (NCI-H69): < 4.99 | pIC50 (SW872): < 4.99 | pIC50 (EW-11): < 4.99 | pIC50 (SK-UT-1): < 4.99 | pIC50 (NCI-H226): < 4.99 | pIC50 (LS-513): < 4.99 | pIC50 (BB30-HNC): 5.47 | pIC50 (NCI-H1395): < 4.99 | pIC50 (OCUB-M): 5.68 | pIC50 (KGN): < 4.99 | pIC50 (EW-18): < 4.99 | pIC50 (no-10): < 4.99 | pIC50 (ACN): < 4.99 | pIC50 (OCI-AML2): < 4.99 | pIC50 (GAK): < 4.99
